Columns and labels:
[1] = oral administration; cited from earlier work
[2] = Bioequivalence test: blood plasma phenylbutazone levels (HPLC) after horses eat the product mixed in grain; type: in vivo, horse; design: unit not given here; conditions: 4 g phenylbutazone in grain, oral, average of five horses
Method: The above product mixture was tested for bioequivalency as follows. Three healthy mature geldings and two non-pregnant mares aged 3-15 years with similar weights were chosen for a bioequivalence test. The bioequivalence test was designed to determine the difference in blood plasma absorption between commercially available phenylbutazone tablets and the inventive product mixture described above. […] At five o'clock p.m. the evening before the test, each horse was fed a normal meal consisting of 1 gallon of grain with fourteen percent protein, and ten pounds of alfalfa hay. During the test each horse was stabled separately and had access to drinking water at all times. On test day, each horse was fasted until administration of the test product, and then given a normal meal consisting of one gallon of grain with fourteen percent protein and ten pounds of alfalfa hay five hours post dosing and at twelve and one-half hours after administration. The morning of the test, 4.60 grams of the product from example one containing a total of four grams of phenylbutazone, was added to one half gallon of grain with fourteen percent protein by lightly stifling. Each horse was given 15 minutes to consume the grain. […] Each of the five horses followed this procedure. Two hours following administration a 4.5 cc blood sample was taken from each of the five horses. Thereafter, additional 4.5 cc blood samples were taken at half-hour intervals until the sixth hour. After the sixth hour 4.5 cc blood samples were taken hourly until the eighth hour. […] The blood samples were taken with a 20 gauge one inch needle and promptly put into a green CST Lithium Heparin tubes and cooled in ice water at 36 degrees F. When each sample was collected, the blood sample was spun to separate the blood plasma from each sample. The separated blood plasma was placed in a freezer for twenty-four hours at 20 below zero. After twenty-four hours, the blood plasma was thawed to room temperature and phenylbutazone levels were quantified for each sample by a validated HPLC method. Two weeks later after completing a wash out period, the same three healthy mature geldings and two non-pregnant mares aged 3-15 years with similar weights were used for a cross over bioequivalence test. This bioequivalence test was to determine the concentration levels in blood plasma absorption of commercially available phenylbutazone tablets. […] At five o'clock p.m. the evening before the test, each horse was fed a normal meal consisting of 1 gallon of grain with fourteen percent protein, and ten pounds of alfalfa hay. During the test each horse was stabled separately and had access to drinking water at all times. On test day, each horse was fasted until administration of the test product (4 grams of crushed active ingredient phenylbutazone in tablets), and then given a normal meal consisting of one gallon of grain with fourteen percent protein and ten pounds of alfalfa hay five hours post dosing, and at twelve and one-half hours after administration. The morning of the test, four 1 gram tablets of the commercially available phenylbutazone were crushed in to a fine powder, and were added to one half gallon of grain with fourteen percent protein by lightly stifling for each horse. Each horse was given 15 minutes to consume the grain. […] Each of the five horses followed this procedure. Two hours following administration a 4.5 cc blood sample was taken from each of the five horses. Thereafter, additional 4.5 cc blood samples were taken at half-hour intervals until the sixth hour. After the sixth hour 4.5 cc blood samples were taken hourly until the eighth hour. […] The blood samples were taken with a 20 gauge one inch needle and promptly put into a green CST Lithium Heparin tubes and cooled in ice water at 36 degrees F. When each sample was collected, the blood sample was spun to separate the blood plasma from each sample. The separated blood plasma was placed in a freezer for twenty-four hours at 20 below zero. […]

In the case of `CCCCC1C(=O)N(c2ccccc2)N(c2ccccc2)C1=O` [Pure Phenylbutazone, 4-butyl-diphenyl-3,5-pyrazoidinedione], the “time required to achieve an effective concentration level” value [1] is listed as 3 to 5 h, the “blood plasma concentration of phenylbutazone” value (shortened to “blood plasma concentration”) ([2]; 2 hours after eating) is listed as 5.0 and the “blood plasma concentration” value ([2]; 3 hours after eating) is listed as 6.0. For the same compound, the “blood plasma concentration” value ([2]; 4 hours after eating) was 8.5, the “blood plasma concentration” value ([2]; 5 hours after eating) was 10.1 and the “blood plasma concentration” value ([2]; 6 hours after eating) was 12.0. For the same compound, the “blood plasma concentration” value ([2]; 7 hours after eating) was 13.0, the “blood plasma concentration” value ([2]; 8 hours after eating) was 12.14 and the “blood plasma concentration” value ([2]; 10 hours after eating) was 9.9. For the same compound, the “blood plasma concentration” value ([2]; 12 hours after eating) was 7.3 and the “blood plasma concentration” value ([2]; 18 hours after eating) was 4.18.

— US8524759B2, “Phenylbutazone carrier formulation showing increased bioactivity in animals” (priority 2009, dated 2013)
